# Experimental data: ChEMBL document CHEMBL2331197, “Alstoniaphyllines A-C, unusual nitrogenous derivatives from the bark of Alstonia macrophylla” (J Nat Prod, 2013)
# Activity calls are given as the source filed them. No cut-off for these calls is given here.
# Test system: Plasmodium falciparum
# Experiment: Antimalarial activity against multidrug-resistant Plasmodium falciparum K1 by [3H]-hypoxanthine incorporation assay
# Type: functional, organism-based
SMILES,IC50,Activity
CC(=O)C1=COC[C@H]2[C@@H]3C[C@@]4(C(=O)N(C)c5ccccc54)[C@H](C[C@@H]12)N3 [ALSTONAL],7.6 µM,–
COc1ccc2c(c1)N(C)C(=O)[C@@]21C[C@@H]2N[C@H]1C[C@H]1C(C(C)=O)=COC[C@@H]21,–,Active

# Test system: KB
# Experiment: Cytotoxicity against human KB cells by resazurin assay
# Type: functional, cell-based
row,SMILES,IC50
1,CC(=O)C1=COC[C@H]2[C@@H]3C[C@@]4(C(=O)N(C)c5ccccc54)[C@H](C[C@@H]12)N3 [ALSTONAL],> 100 µM
2,Cc1c2ccncc2c(C)c2c1[nH]c1ccccc12 [ELLIPTECINE],4.87 µM
3,COc1ccc2c3c(n(C)c2c1)[C@@H]1C[C@H]2C(C=O)=C(C)OC[C@H]2[C@H](C3)N1C [ALSTOPHYLLAL],> 100 µM
4,CC1=C(C=O)[C@@H]2C[C@H]3c4c(c5ccccc5n4C)C[C@@H]([C@@H]2CO1)N3C [ALSTONERINAL],> 100 µM
5,CC(=O)C1=COC[C@@H]2[C@H]1C[C@H]1C(=O)C[C@@H]2N1C [ALSTONIAPHYLLINE A],> 100 µM
6,C[C@@H]1OC[C@@H]2[C@@H](C[C@H]3c4c(c5ccccc5n4C)C[C@@H]2N3C)[C@@H]1C=O [Talcarpine],> 100 µM
7,C[C@@H]1OC[C@@H]2[C@@H](C[C@H]3c4c(c5ccccc5n4C)C[C@@H]2N3C)[C@H]1CO [MACROCARPINE B],> 100 µM
8,CC(=O)C1=COC[C@@H]2[C@H]1C[C@H]1[C@H](O)C[C@@H]2N1C [ANGUSTIMALINE],> 100 µM
9,C[C@@H]1OC[C@@H]2[C@@H](C[C@H]3C4=Nc5ccccc5C4=C[C@@H]2[N+]3(C)[O-])[C@@H]1CO (stereo not given in full) [ALSTONIAPHYLLINE C],> 100 µM
10,COc1ccc2c(c1)N(C)C(=O)[C@@]21C[C@@H]2N[C@H]1C[C@H]1C(C(C)=O)=COC[C@@H]21,> 100 µM
11,C[C@@H]1OC[C@@H]2[C@@H](C[C@H]3C(=O)C[C@@H]2N3C)[C@@H]1CO [ALSTONIAPHYLLINE B],> 100 µM
12,COc1cccc2c1C(=O)c1c(O)c3c(c(O)c1C2=O)C[C@@](O)(C(=O)CO)C[C@@H]3O[C@H]1C[C@H](N)[C@H](O)[C@H](C)O1 [DOXORUBICIN],0.55 µM
13,C/C=C1/CN2CC[C@@]34c5cc(OC)ccc5N(C)[C@H]3[C@@H]2C[C@H]1[C@@H]4C(=O)OC,> 100 µM
